# According to paper PMC4338040, “Design of a Multicomponent Peptide-Woven Nanocomplex for Delivery of siRNA” (PLoS ONE, 2015):
# Tested on: siRNA
# Experiment: Gel retardation assay of siRNA encapsulation
# Type: physicochemical
# Conditions: 2% agarose, 100 pmol siRNA mixed with peptide 30 min at room temperature, ratios 1:5 to 1:50
# Protocol: Peptide-woven siRNA nanocomplexes (PwSN) were prepared by mixing siRNA in diethylpyrocarbonate (DEPC)-treated water (100 pmoles) with peptide carrier with a molar ratio of 1:5 to 1:50 (siRNA: peptide) for 30 min at room temperature. The samples were subjected on 2% agarose gels electrophoresis to examine siRNA encapsulation. To test the stability of the siRNA nanocomplex against RNase A, the nanocomplex containing 100 pmol of siRNA mixed with 20-fold molar excess of peptides, then was incubated in the presence or absence of RNase A (0.2 μg) for up to 6 h at 37°C. After incubation, the RNase A activity was inhibited by addition of 2% sodium dodecyl sulfate (SDS) and subjected to agarose gel electrophoresis.
row,siRNA:peptide molar ratios at which siRNA is encapsulated,Substance
1,between 1:20 and 1:50,"CRKRLDRNC-GG-RRRRRRRRR [I4R-9r, interleukin-4 receptor-targeting peptide (I4R) connected by GG to nine D-arginine peptide]"

# Tested on: siRNA
# Experiment: SPR analysis of peptide binding to immobilized siRNA
# Conditions: peptide with sHGP-9r (19:1 molar ratios), 10, 5, 2.5 and 1.25 μM, biotinylated siRNA on streptavidin chip, 25°C
# Protocol: The dynamics of PwSN formation were studied by SPR analysis (SR7500 DC, Reichert Inc, Depew, NY). 5′-Biotinylated siRNAs were diluted to 1 μM in HBS buffer (10 mM HEPES, pH 7.4, 150 mM NaCl, 3.4 mM EDTA, 0.005% Tween20), heated at 85°C for 10 min, cooled to room temperature, diluted to 20 fmol/μl in running buffer (10 mM HEPES, pH 7.4, 150 mM NaCl, 62.5 μg/ml bovine serum albumin, 125 μg/ml tRNA, 1 mM dithiothreitol, 0.05% Tween20), and injected at 10 μl/min. 50–100 response units of siRNA were coated per flow channel on streptavidin-coated sensor chip (NeutrAvidin Surface chip; Reichert Analytical Instrument, Depew, NY). 2-min injections of four different peptide concentrations (10, 5, 2.5, and 1.25 μ M) were injected over the sensor chip surface at 25°C with a flow rate of 25 μl/min. The surface was regenerated by removing bound peptides with a 180-s 2 M NaCl injection and 20-s 0.1% SDS followed by a binding buffer injection to rinse the needle. Sensorgrams were fit to kinetic titration model using Clamp program. To monitor dissociation between peptide and siRNA upon heparan sulfate competition, The 2.5 μM of peptides were injected to reach saturated binding and different concentrations of heparan sulfate were injected.
row,Substance,binding affinity for siRNA (in words)
1,"CRKRLDRNCggRRARRRRRR [I4R-9r(A1*), I4R-9r variant with one arginine of 9r replaced by alanine, other position]",moderate affinity
2,"CRKRLDRNCggRRRRARRRR [I4R-9r(A1), I4R-9r variant with one arginine of 9r replaced by alanine]",moderate affinity

# Next, values leading:
row,binding affinity for siRNA (in words),Substance
1,strongest binding affinity,"CRKRLDRNC-GG-RRRRRRRRR [I4R-9r, interleukin-4 receptor-targeting peptide (I4R) connected by GG to nine D-arginine peptide]"
2,lowest affinity,"CRKRLDRNCggRARRARRAR [I4R-9r(A3), I4R-9r variant with three alanine substitutions]"
3,lowest affinity,"CRKRLDRNCggRRARRRARR [I4R-9r(A2), I4R-9r variant with two alanine substitutions]"
